From the supplement of paper PMC10307832

Tests used:
Assay in all cases: relative viability (nuclei count vs DMSO), 5 days (fraction); higher = more cells survive
[1] = compound: CC(O)(CS(=O)(=O)c1ccc(F)cc1)C(=O)Nc1ccc(C#N)c(C(F)(F)F)c1 [Bicalutamide] + CC(=O)c1c(C)c2cnc(Nc3ccc(N4CCNCC4)cn3)nc2n(C2CCCC2)c1=O [Palbociclib] (partner 0.5 µM)
How it was run: (§1)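 Lung cancer cell lines were seeded in 1536-well plates and dosed by pin tool the next day, with either a single drug or a fixed anchor-drug dose combined with five library-drug doses (not always all listed) spaced in √10 steps. Five days later, one step fixed the cells and stained their nuclei (final 0.05% Triton X-100, 1% formaldehyde, 1 ug/ml Hoechst), and nuclei were counted on 4× images. Relative viability is the nuclei count in treated wells divided by the count in vehicle wells, and each value is the median of duplicate plates.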

Bicalutamide + AZD7762 = compound: CC(O)(CS(=O)(=O)c1ccc(F)cc1)C(=O)Nc1ccc(C#N)c(C(F)(F)F)c1 [Bicalutamide] + NC(=O)Nc1cc(-c2cccc(F)c2)sc1C(=O)N[C@H]1CCCNC1 [AZD7762] (partner 0.2 µM)
How it was run: as §1

[2] = compound: C(C(=O)C(=O)O)Br [Bromopyruvate] + Cc1nc(NC(=O)N2CCC[C@H]2C(N)=O)sc1-c1ccnc(C(C)(C)C(F)(F)F)c1 [Alpelisib] (partner 2 µM)
How it was run: as §1

[3] = compound: CC(O)(CS(=O)(=O)c1ccc(F)cc1)C(=O)Nc1ccc(C#N)c(C(F)(F)F)c1 [Bicalutamide] + CC(C)C[C@H](NC(=O)[C@H](Cc1ccccc1)NC(=O)c1cnccn1)B(O)O [Bortezomib] (partner 0.002 µM)
How it was run: as §1

| Cell Line | relative viability ([1]; first compound 0.08 µM) | relative viability ([1]; first compound 0.253 µM) | relative viability ([1]; first compound 0.8 µM) | relative viability ([1]; first compound 2.53 µM) | relative viability (Bicalutamide + AZD7762; first compound 0.08 µM) | relative viability (Bicalutamide + AZD7762; first compound 0.253 µM) | relative viability (Bicalutamide + AZD7762; first compound 0.8 µM) | relative viability (Bicalutamide + AZD7762; first compound 2.53 µM) | relative viability ([2]; first compound 1 µM) | relative viability ([2]; first compound 3.162 µM) | relative viability ([2]; first compound 10 µM) | relative viability ([2]; first compound 31.62 µM) | relative viability ([2]; first compound 100 µM) | relative viability ([3]; first compound 0.08 µM) | relative viability ([3]; first compound 0.253 µM) | relative viability ([3]; first compound 0.8 µM) | relative viability ([3]; first compound 2.53 µM) |
| --- | --- | --- | --- | --- | --- | --- | --- | --- | --- | --- | --- | --- | --- | --- | --- | --- | --- |
| NCI-H522 | 0.949 | 1.11 | 1.11 | 0.894 | 0.762 | 0.849 | 0.916 | 0.808 | – | – | – | – | – | – | – | – | – |
| HCC-15 | 0.727 | 0.501 | 0.79 | 0.767 | 1.07 | 1.05 | 1.2 | 1.09 | 0.929 | 0.947 | 0.962 | 0.852 | 0.8 | 1.03 | 0.953 | 1.21 | 0.983 |
| A-427 | 0.547 | 0.54 | 0.56 | 0.526 | 0.807 | 0.677 | 0.855 | 0.583 | 1.12 | 1.07 | 1.09 | 1.05 | 1.02 | 1.04 | 1.12 | 1 | 0.93 |
| NCI-H23 | 0.529 | 0.503 | 0.515 | 0.471 | 0.315 | 0.236 | 0.27 | 0.2 | 0.607 | 0.669 | 0.68 | 0.46 | 0.43 | 0.964 | 1.03 | 1.49 | 0.786 |
| NCI-H1734 | 0.332 | 0.283 | 0.379 | 0.328 | 0.568 | 0.439 | 0.645 | 0.571 | 0.624 | 0.728 | 0.684 | 0.663 | 0.704 | 1.01 | 0.843 | 1.12 | 0.915 |
| NCI-H1993 | 0.642 | 0.513 | 0.793 | 0.772 | 0.539 | 0.744 | 0.919 | 0.58 | 0.691 | 0.705 | 0.668 | 0.642 | 0.644 | – | 0.897 | 1.31 | 1.12 |
| PC-3 [JPC-3] | 0.556 | 0.576 | 0.567 | 0.552 | 0.86 | 0.815 | 0.912 | 0.874 | 1.06 | 1.01 | 1.01 | 1.06 | 1.03 | 0.808 | 0.909 | 0.908 | 0.818 |
| NCI-H1915 | 0.534 | 0.463 | 0.595 | 0.473 | 0.721 | 0.616 | 0.712 | 0.682 | 1.03 | 1.05 | 1.04 | 1.12 | 1.08 | 0.962 | 0.944 | 1.11 | 0.909 |
| NCI-H1666 | 0.652 | 0.603 | 0.652 | 0.675 | 0.928 | 0.759 | 0.873 | 0.801 | 1.21 | 1.07 | 1.11 | 1.02 | 0.774 | 0.808 | 0.802 | 1 | 0.949 |
| HCC-366 | 0.368 | 0.383 | 0.583 | 0.359 | 0.392 | 0.229 | 0.332 | 0.281 | 0.494 | 0.403 | 0.503 | 0.519 | 0.41 | 1.04 | 1.02 | 1.43 | 1.04 |
| SK-MES-1 | 0.319 | 0.3 | 0.3 | 0.281 | – | – | – | – | 0.842 | 0.878 | 0.915 | 0.868 | 1.01 | – | – | – | – |
| NCI-H727 | 0.647 | 0.645 | 0.693 | 0.635 | 0.794 | 0.563 | 0.54 | 0.576 | 0.683 | 0.66 | 0.629 | 0.547 | 0.597 | 0.884 | 0.709 | 0.968 | 0.626 |
| RERF-LC-KJ | 1.08 | 1.05 | 1.17 | 0.865 | 0.982 | 0.847 | 1.47 | 0.867 | 0.688 | 1.09 | 0.825 | 0.773 | 0.82 | 1.24 | 0.951 | 1.23 | 1.07 |
| Calu-6 | – | – | – | – | – | – | – | – | 1.09 | 1.02 | 1.05 | 0.952 | 0.615 | 1.08 | 0.857 | 1.05 | 0.922 |
| LC-2-ad | 0.475 | 0.473 | 0.464 | 0.516 | 0.852 | 0.838 | 0.915 | 0.883 | 0.925 | 0.919 | 0.839 | 0.938 | 0.893 | 1.07 | 1.05 | 0.997 | 1.01 |
| CAL-12T | 0.505 | 0.352 | 0.533 | 0.329 | 0.729 | 0.655 | 0.703 | 0.68 | 1.17 | 1.49 | 1.38 | 1.25 | 0.952 | 0.942 | 0.858 | 1.12 | 0.768 |
| SK-LU-1 | 0.403 | 0.452 | 0.43 | 0.378 | – | – | – | – | 1.09 | 1.05 | 0.939 | 0.874 | 0.86 | 1.33 | 1.37 | 1.89 | 1.09 |
| NCI-H1650 | 0.435 | 0.314 | 0.464 | 0.355 | – | – | – | – | – | – | – | – | – | 0.172 | 0.204 | 0.192 | 0.175 |
| BEN | 0.442 | 0.438 | 0.526 | 0.496 | 0.742 | 0.563 | 0.874 | 0.675 | 0.985 | 1.05 | 1.15 | 0.957 | 1.07 | 0.847 | 0.667 | 1.18 | 0.917 |
| EMC-BAC-2 | 0.532 | 0.502 | 0.543 | 0.437 | 1.05 | 1 | 1.09 | 0.735 | 0.658 | 0.771 | 0.897 | 0.747 | 0.826 | 1.04 | 0.968 | 1.15 | 0.929 |
| LU99A | 0.386 | 0.36 | 0.531 | 0.393 | 0.431 | 0.286 | 0.544 | 0.252 | 0.516 | 0.491 | 0.512 | 0.561 | 0.483 | 0.995 | 0.964 | 1.24 | 0.846 |
